Test system: breast carcinoma xenograft (50% MDA MB361 cells expressing β-galactosidase plus 50% MDA MB361-STCPG2(O)3 cells expressing surface tethered carboxypeptidase G2 …)
Parameters: species or system Nu/Nu BalbC mouse
Conditions: mouse, in vivo

Row | Structure (SMILES) | time up to which 50% survival was found post-treatment | time for which a 50% survival rate was provided
1 | O=C(O)CC[C@H](NC(=O)c1ccc(N(CCCl)CCCl)c(F)c1)C(=O)O [B, {3-fluoro-4-[bis(2-chloroethyl)amino]benzoyl}-L-glutamic acid] | about 70 days | 
2 | O=C(O)CC[C@H](NC(=O)c1cc(F)c(N(CCI)CCI)c(F)c1)C(=O)O [Example 1, {3,5-difluoro-4-[bis(2-iodoethyl)amino]benzoyl}-L-glutamic acid] |  | over 200 days

Source: patent US6852755B1 (priority 1999, dated 2005)
